Data published in patent US8791104B2, “1,4-benzodiazepine-2,5-diones with therapeutic properties” (The Regents of the University of Michigan, priority 2005, dated 2014).

Assays:
ATP synthesis = assay: Cellular ATP synthesis in the presence of compounds; type: cell-based; settings: compounds exposed to cells (FIG. 6)
Protocol: The following four compounds were exposed to cells, and ATP synthesis measured: […]

[1] = system: mitochondrial F1F0-ATPase; settings: cited from earlier work
[2] = target: T1, oligomycin sensitivity conferring protein (OSCP) component of the mitochondrial F1F0-ATPase (Homo sapiens, UniProt P48047); settings: cited from earlier work
T1 sequence (P48047 24-213): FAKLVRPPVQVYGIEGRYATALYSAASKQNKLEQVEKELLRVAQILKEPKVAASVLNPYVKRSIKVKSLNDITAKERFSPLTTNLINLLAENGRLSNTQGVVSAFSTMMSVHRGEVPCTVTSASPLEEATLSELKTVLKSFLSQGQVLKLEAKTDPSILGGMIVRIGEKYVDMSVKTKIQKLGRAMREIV

animal models of lupus = settings: in vivo; cited from earlier work

| Compound | inhibition of ATP synthesis (ATP synthesis) | inhibition of the F1F0-ATPase [1] | binding to OSCP [2] | activity in animal models of lupus (animal models of lupus) |
| --- | --- | --- | --- | --- |
| CN1C(=O)C(c2ccccc2)NC(c2ccc(O)cc2)c2cc(Cl)ccc21 (stereo not shown) | did inhibit ATP synthesis | – | – | – |
| CN1C(=O)C(Cc2ccc3ccccc3c2)N=C(c2ccc(O)cc2)c2cc(Cl)ccc21 (stereo not shown) [Bz-423] | – | inhibits the enzyme | binds to the oligomycin sensitivity conferring protein (OSCP) | potent activity in animal models of lupus |
